Experimental data as given in patent US11938208B2, “Antimicrobial mixture” (SYMRISE AG, priority 2019, dated 2024).

Columns and labels:
[1] = test system: E.coli (ATCC #8739); assay: Preservative efficacy test (challenge test) in an anionic emulsion of pH 5.8; format: cell-based; details: for LR (log reduction), day 2 / LR (log reduction), day 7 / LR (log reduction), day 14 / LR (log reduction), day 21 / LR (log reduction), day 28: log 10 reduction vs initial inoculum; for surviving microorganisms (total aerobic plate count), day 2: day 2 after inoculation; for surviving microorganisms (total aerobic plate count), day 2 / surviving microorganisms (total aerobic plate count), day 7 / surviving microorganisms (total aerobic plate count), day 14 / surviving microorganisms (total aerobic plate count), day 21 / surviving microorganisms (total aerobic plate count), day 28: storage 22.5±2.5° C., TNTC = too numerous to count; for surviving microorganisms (total aerobic plate count), day 7: day 7 after inoculation; for surviving microorganisms (total aerobic plate count), day 14: day 14 after inoculation; for surviving microorganisms (total aerobic plate count), day 21: day 21 after inoculation; for surviving microorganisms (total aerobic plate count), day 28: day 28 after inoculation
Protocol: This test is a reference method that is used to evaluate the preservative efficacy of a test formulation (in the present case an anionic emulsion of pH 5.8 comprising various fatty esters and fatty alcohols as oil bodies and glyceryl stearate citrate as the emulsifier. The formula was inoculated with known populations of microorganisms (0.2 ml of calibrated inoculums into 20 g of the test formulation) and the number of surviving microorganisms was calculated at defined intervals during a 28-day period. The inoculated test products were stored at 22.5±2.5° C. for the 28-day duration. The surviving microorganisms were enumerated via the total aerobic plate count method. For each time point, the log 10 reductions were calculated and were compared to the passing criteria.

[2] = test system: mold; details: moist alfalfa hay; cited from earlier work
[3] = administered intraperitoneally; cited from earlier work
[4] = constituents of Tagetes mendocina; cited from earlier work

| SMILES | LR (log reduction), day 2 [1] | surviving microorganisms (total aerobic plate count), day 2 [1] | LR (log reduction), day 7 [1] | surviving microorganisms (total aerobic plate count), day 7 [1] | LR (log reduction), day 14 [1] | surviving microorganisms (total aerobic plate count), day 14 [1] | LR (log reduction), day 21 [1] | surviving microorganisms (total aerobic plate count), day 21 [1] | LR (log reduction), day 28 [1] | surviving microorganisms (total aerobic plate count), day 28 [1] | prevention of mold growth [2] | LR (log reduction), day 14 ([1]; listed as 0.35% SymSave H) | LR (log reduction), day 21 ([1]; listed as 0.35% SymSave H) | surviving microorganisms (total aerobic plate count), day 21 ([1]; listed as 0.35% SymSave H) | LR (log reduction), day 28 ([1]; listed as 0.35% SymSave H) | surviving microorganisms (total aerobic plate count), day 28 ([1]; listed as 0.35% SymSave H) | reduction of subcutaneous inflammation [3] | antioxidant activity [4] |
| --- | --- | --- | --- | --- | --- | --- | --- | --- | --- | --- | --- | --- | --- | --- | --- | --- | --- | --- |
| CC(C)=CCC[C@](C)(O)[C@@H]1CC=C(C)CC1 [0.6% D100, Bisabolol] | LR 0 | TNTC | LR 0 | TNTC | LR 0 | TNTC | LR 0 | TNTC | LR 0 | TNTC | – | – | – | – | – | – | – | – |
| CC(=O)c1ccc(O)cc1 [0.25% SymSave H, 4-hydroxyacetophenone] | LR 0 | TNTC | LR 0 | TNTC | LR 0 | TNTC | LR 3.94 | 6.4 × 10^2 | LR 5.35 | 2.5 × 10^1 | not prevent mold growth | LR 2.49 | LR 6 | <10 | LR 6 | <10 | reducing subcuteaneous inflammation | one of the active constituents |
